Source: patent publication US11517554B2, “Method for preventing or treating Alzheimer's disease” (OLATEC THERAPEUTICS LLC, priority 2018, dated 2022)

Key:
[1] = tested on: AIM2 inflammasome pathway; assay: In vitro screening: cytokine production via AIM2 inflammasome pathway; type: cell-based
[2] = tested on: NLRC4 inflammasome pathway; assay: In vitro screening: cytokine production via NLRC4 inflammasome pathway; type: cell-based
[3] = tested on: pro-IL-1; assay: In vitro screening: inhibition of pro-IL-1; type: cell-based
Procedure: (§1) To investigate potential off-target activity of dapansutrile, secondary pharmacological effects were assessed through in vitro screening assays. […] An evaluation of 68 critical transmembrane and soluble receptors, ion channels and monoamine transporters were performed for off-target effects of dapansutrile. An additional 69 receptors and enzymes were evaluated with dapansutrile for potential activity in a follow-on study that focused on enzymes involved in inflammatory cascades. A single identified target, the PDE4 enzyme, was inhibited in a concentration range of ≥100 μM (13 μg/mL) and was dose-responsive for effect, but subsequent studies were not conclusive.

[4] = tested on: pro-IL-18; assay: In vitro screening: inhibition of pro-IL-18; type: cell-based
Procedure: as §1

[5] = tested on: PDE4 enzyme; assay: Off-target screening: PDE4 enzyme inhibition; type: biochemical
Procedure: as §1

[6] = target: COX-1 (Homo sapiens, UniProt P23219); assay: Off-target screening: COX-1; type: biochemical; details: screening assay
Procedure: as §1

[7] = target: T1, COX-2 (Homo sapiens, UniProt P35354); assay: Off-target screening: COX-2; type: biochemical; details: screening assay
T1 sequence (P35354 18-604): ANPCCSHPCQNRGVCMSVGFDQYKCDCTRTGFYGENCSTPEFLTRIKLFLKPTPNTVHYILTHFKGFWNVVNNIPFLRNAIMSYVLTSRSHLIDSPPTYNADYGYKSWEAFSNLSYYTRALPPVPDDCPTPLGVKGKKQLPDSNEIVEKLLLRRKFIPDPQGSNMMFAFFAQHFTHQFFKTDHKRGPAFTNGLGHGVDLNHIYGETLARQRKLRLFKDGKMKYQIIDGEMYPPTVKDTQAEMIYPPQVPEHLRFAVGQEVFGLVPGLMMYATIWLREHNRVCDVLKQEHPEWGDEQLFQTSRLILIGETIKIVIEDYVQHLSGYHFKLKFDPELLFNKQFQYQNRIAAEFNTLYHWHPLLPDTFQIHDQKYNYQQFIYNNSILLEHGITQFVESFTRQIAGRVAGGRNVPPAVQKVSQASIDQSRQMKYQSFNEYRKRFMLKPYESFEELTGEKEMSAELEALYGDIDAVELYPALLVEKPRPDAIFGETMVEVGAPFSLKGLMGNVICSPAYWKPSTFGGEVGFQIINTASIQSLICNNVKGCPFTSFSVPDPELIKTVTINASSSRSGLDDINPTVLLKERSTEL
Procedure: as §1

[8] = tested on: opioid receptors; assay: Off-target screening: opioid receptors; type: binding; details: screening assay
Procedure: as §1

[9] = tested on: 68 critical transmembrane and soluble receptors, ion channels and monoamine transporters; additional 69 receptors and enzymes; assay: Off-target screening panels (68 receptors, ion channels, monoamine transporters; additional 69 receptors and enzymes); details: all targets other than PDE4
Procedure: as §1

[10] = tested on: IL-1β challenged mice; assay: IL-6 and MPO levels after IL-1β intraperitoneal challenge in treated mice (ELISA); type: in vivo; details: 200 mg/kg, 8 injections over 4 days
Procedure: Mice were treated with 200 mg/kg dapansutrile (OLT1177™) for 8 injections over 4 days. Mice were trained on a rotarod on day 3. Twelve hours after the last injection, mice were run on the rotarod for distance. One hour after the rotarod, mice were challenged with 60 ng IL-1β intraperitoneally; mice were then sacrificed 4 hours later. Whole blood, plasma, brain, and lung of the mice were collected. Whole blood was cultured, plasma was frozen. Brain was processed for cytokine analysis. Each group had N=5. Ex vivo samples were obtained from the brain of mice treated with vehicle or dapansutrile and subjected to exhaustive exercise.

[11] = tested on: APP/PS1 mice; assay: Cytokine levels of brain homogenates of APP/PS1 mice (ELISA); type: in vivo; details: 3 months, vs control food
Procedure: (§2) In the study design, 6-month-old wild-type (WT), and AD transgenic APP/PS1[deltaE9] mice were treated with oral dapansutrile via feed pellets ad libitum (approximately 0, 50 or 100 mg/kg/day based on feed concentrations of 0, 3.75 or 7.5 g/kg and food consumption of 4 g/day) for the treatment duration of 3 months. At 9 months old, behavior testing of the mice was performed. In addition, the brains of the mice were extracted, and blood samples were collected. The brains of the mice from each group were performed for electrophysiological and neuronal morphological analysis, cytokine levels and other assays.
One hemisphere of each mouse was homogenized in STKM-buffer and centrifuged for 10 min at 4° C. with 13,000 g. The supernatant of the brain lysate was collected and measured for pro-inflammatory mediators IL-6 and IL-1β by ELISA by diluting the sample 1:2. […] The IL-1β levels were reduced in APP/PS1 mice treated with dapansutrile at a low dose (500 mg/kg/day, p value=0.0287) and a medium dose (1000 mg/kg/day, p value=0.0368) compared to APP/PS1 mice fed with control food (FIG. 2B)

[12] = tested on: APP/PS1 mice; assay: Morris water maze test in APP/PS1 mice; type: in vivo
Procedure: as §2
Spatial memory formation and retention were assessed using the Morris water maze (MWM) assay. A 10 cm escape platform was submerged 1 cm below the water surface into a circular plastic pool filled up with opaque water. Three visual cues were positioned on the walls around the pool. A digital camera was installed above the center of the maze. Images will be acquired and transmitted to a PC running the tracking software ANY-maze (ANY-maze). On the first three days (pre-training) the mice were trained using a visible platform (the platform was placed above the water surface).
To assess spatial memory formation, the mice were trained to locate the hidden platform for 8 consecutive days. The escape latency of each trial (4 per day with an interval of 3-5 min) was recorded and analyzed by the tracking software. At training day 3 and at day 9, memory retention was assessed in a probe trial performed by removing the platform and analyzing the search pattern used by each mouse for a fixed time of 45 seconds.
The escape latency which describes the time mice need to find the hidden platform was measured and was analyzed as the mean value of the 4 trials each day and shown in FIG. 3A; all genotypes decreased the escape latency from day 1 to day 8. For example, on day 5, wildtype mice (N=8) needed 23.59±4.08 seconds to reach the platform. APP/PS1 (500 mg/kg/day dapansutrile treated) mice (N=5) needed 37.31±4.96 seconds, and APP/PS1 (1000 mg/kg dapansutrile treated) mice (N=6) needed 21.30±3.19 seconds (p value=0.021), compared to APP/PS1 (control food) mice (n=6) needed 42.04±6.89 seconds.
To provide the evidence for cognitive learning 24 hours after the last training session, a reverence test was performed (probe trial) on training day 9. Here, mice were tested in the water maze without the platform to escape and the time was measured in which quadrant the mice spend their time. We compare the mean time in percentage of the three non-target quadrants (NT) to the time in percentage of the target quadrant (TQ, platform was located during training period). […] Whereas there was no preference for a TQ over NT in APP/PS1 (control food) and APP/PS1 500 mg/kg/day (low dose).

[13] = tested on: APP/PS1 mice hippocampal slices, Schaffer collateral CA3 to CA1 pathway; assay: Long-term potentiation (LTP) in acute hippocampal slices of APP/PS1 mice; type: in vivo; details: for normalized mean LTP of last 5 minutes of recording: APP/PS1 mice, 55-60 min after TBS, APP/PS1 untreated 1.303, wildtype 1.553
Procedure: as §2
Given the observed recovery in the impaired learning and memory processes in APP/PS1 mice treated with 1000 mg/kg/day dapansutrile (Example 5), we were interested in determining whether hippocampal network function would be recovered following medium dose of dapansutrile administration. For this purpose, we analyzed synaptic plasticity at the Schaffer collateral pathway connecting the CA3 with the CA1 subfield, one of the most extensively studied synapses in the central nervous system. Long-term potentiation (LTP) as a cellular correlation of learning processes at the Schaffer collateral CA3 to CA1 pathway was induced by theta-burst stimulation (TBS) after 20 min of baseline recording.
Acute hippocampal slices were prepared from mice in four groups including wild-type, APP/PS1, APP/PS1 treated with 500 mg/kg/day and APP/PS1 treated with 1000 mg/kg/day of dapansutrile. Briefly, mice were deeply anesthetized with 100% CO2, killed, and then brains were quickly removed and transferred into ice-cold carbogenated (95% O2 and 5% CO2) artificial CSF (ACSF) solution. Afterward, the hippocampus was dissected and transverse hippocampal slices (400 μm) were obtained using a manual tissue chopper. The hippocampal slices were transferred to an interface recording chamber, where they were incubated at 32° C. with a constant flow rate (0.5 ml/min) of carbogenated ACSF for 2 h before the start of recordings. Field excitatory post synaptic potentials (fEPSPs) were recorded in the stratum radiatum of the CA1 region in hippocampal slices. Responses were evoked by stimulation of the Schaffer collateral pathway using two electrodes. These stimulation electrodes (S1 and S2) were positioned equidistantly on both sides of the recording electrode and, by this means, two independent stimulation pathways could be used for the same CA1 recording region. For recording fEPSPs (measured as the first slope function), the recording electrode was placed in the CA1 apical dendritic layer and signals were amplified by a differential amplifier and digitized. […] The slope of fEPSPs was measured over time for 60 min and normalized to the baseline. […]

[14] = exhaustive exercise, 60 ng IL-1β i.p., 4 hours later, vs vehicle

Sequence of COX-1 (P23219 24-599): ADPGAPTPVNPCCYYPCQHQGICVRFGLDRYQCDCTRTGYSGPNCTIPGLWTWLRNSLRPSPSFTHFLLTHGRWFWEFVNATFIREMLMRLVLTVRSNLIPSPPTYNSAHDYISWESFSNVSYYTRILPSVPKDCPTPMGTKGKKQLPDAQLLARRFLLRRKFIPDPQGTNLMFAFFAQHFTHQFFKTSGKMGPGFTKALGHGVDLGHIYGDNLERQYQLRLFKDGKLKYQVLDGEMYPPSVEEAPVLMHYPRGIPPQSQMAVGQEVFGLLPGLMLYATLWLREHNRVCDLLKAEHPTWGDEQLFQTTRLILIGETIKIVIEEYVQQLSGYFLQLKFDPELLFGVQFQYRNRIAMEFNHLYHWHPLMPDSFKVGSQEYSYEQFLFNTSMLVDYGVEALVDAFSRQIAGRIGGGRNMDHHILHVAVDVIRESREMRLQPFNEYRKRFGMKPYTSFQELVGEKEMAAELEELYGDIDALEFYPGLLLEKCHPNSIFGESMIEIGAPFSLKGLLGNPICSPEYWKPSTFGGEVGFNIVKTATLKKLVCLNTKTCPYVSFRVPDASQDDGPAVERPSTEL

- concentration range in which PDE4 enzyme was inhibited ([5]; dose-responsive, subsequent studies not conclusive): ≥ 100 µM
- concentration range in which PDE4 enzyme was inhibited ([5]; same bound given in μg/mL): ≥ 13 µg/mL
- direct effects on COX-1 [6]: no direct effects
- direct effects on COX-2 [7]: no direct effects
- interaction with opioid receptors [8]: no interaction
- other effects in the screening assays [9]: No other effects were noted
Structure (SMILES): CS(=O)(=O)CCC#N [dapansutrile, 3-Methanesulfonylpropionitrile]
- inhibitory effect on cytokine production via the AIM2 inflammasome pathway [1]: no inhibitory effect
- inhibitory effect on cytokine production via the NLRC4 inflammasome pathway [2]: no inhibitory effect
- inhibition of pro-IL-1 [3]: no inhibition
- inhibition of pro-IL-18 [4]: no inhibition
- level of systemic IL-1β after IL-1β stimulation ([10]; data not shown): also reduced
- level of systemic IL-6 after IL-1β stimulation ([10]; data not shown): also reduced
- level of systemic MPO after IL-1β stimulation ([10]; data not shown): also reduced
- IL-6 level in the brain [10, 14]: reduced levels
- myeloperoxidase (MPO) level in the brain [10, 14]: reduced levels
- IL-1β levels in brain lysate ([11]; 500 mg/kg/day oral via feed, p value=0.0287): reduced
- IL-6 levels in brain lysate ([11]; 1000 mg/kg/day oral via feed, p value=0.0035): reduced
- IL-1β levels in brain lysate ([11]; 1000 mg/kg/day oral via feed, p value=0.0368): reduced
- escape latency (time to reach the hidden platform) ([12]; 500 mg/kg/day, day 5, N=5, APP/PS1 control food 42.04±6.89, wildtype 23.59±4.08): 37.31 ± 4.96 s
- preference for the target quadrant (TQ) over non-target quadrants (NT), probe trial ([12]; 500 mg/kg/day, day 9): no preference
- escape latency (time to reach the hidden platform) ([12]; 1000 mg/kg, day 5, N=6, p value=0.021, APP/PS1 control food 42.04±6.89, wildtype 23.59±4.08): 21.30 ± 3.19 s
- preference for the target quadrant (TQ) over non-target quadrants (NT), probe trial ([12]; 1000 mg/kg/day, day 9, p value=0.0001): significant preference
- LTP impairment in APP/PS1 mice ([13]; 1000 mg/kg/day): rescued
- normalized mean LTP of last 5 minutes of recording ([13]; low dose (500 mg/kg/day), N=2, n=8): 1.198
- normalized mean LTP of last 5 minutes of recording ([13]; medium dose (1000 mg/kg/day), N=1, n=7): 1.469
- LTP deficit in APP/PS1 mice ([13]; low dose, 500 mg/kg/day): not able to improve
